# In publication PMC10891265 (2024):
# Tested on: ATP aptamer (Apt-POSS) (DNA, aptamer) CCACCACGGTGGTGGTGGTTGTGGTGC
# Test: UV absorption at 260 nm after centrifugation, Langmuir fit
# Conditions: PBS, 30 min
SMILES,"binding (control nucleotide, captured less than ATP, ATP series 1 μM to 2 mM)","K (0.1 mg particle/mL, aptamer on nanoparticles, apparent) [µM]"
Nc1ccn([C@@H]2O[C@H](COP(=O)(O)OP(=O)(O)OP(=O)(O)O)[C@@H](O)[C@H]2O)c(=O)n1,weak,
Nc1ncnc2c1ncn2[C@@H]1O[C@H](COP(=O)(O)OP(=O)(O)OP(=O)(O)O)[C@@H](O)[C@H]1O,,46.5 ± 18.5
